According to the supplement of paper PMC11451515:

Test system: P12-Ichikawa
Assay: cell viability relative to DMSO control; higher = less cytotoxic
Conditions: 48 h
How it was run: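 Before seeding, each leukemia line was adapted for at least four passages in each medium. NOMO1 or SEM cells (500 cells/well) and P12-Ichikawa cells (1000 cells/well) went into 1536-well plates at 5 μl, then received library compounds in DMSO by pin dosing across 11 threefold concentrations, 47 μM to 0.79 nM. Readout was CellTiter-Glo One luminescence after 48 h at 37°C, and viability is given as a per-plate percentage of DMSO wells, with cell-free wells as background.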

[1] = HPLM + 10% dialyzed FBS, 0.000781 µM
[2] = HPLM + 10% dialyzed FBS, 0.00234 µM
[3] = HPLM + 10% dialyzed FBS, 0.00702 µM
[4] = HPLM + 10% dialyzed FBS, 0.0211 µM
[5] = HPLM + 10% dialyzed FBS, 0.0632 µM
[6] = HPLM + 10% dialyzed FBS, 0.19 µM
[7] = HPLM + 10% dialyzed FBS, 0.569 µM
[8] = HPLM + 10% dialyzed FBS, 1.71 µM
[9] = HPLM + 10% dialyzed FBS, 5.12 µM
[10] = HPLM + 10% dialyzed FBS, 15.4 µM
[11] = HPLM + 10% dialyzed FBS, 46.1 µM
[12] = RPMI 5 mM glucose + 10% FBS, 0.000781 µM
[13] = RPMI 5 mM glucose + 10% FBS, 0.00234 µM
[14] = RPMI 5 mM glucose + 10% FBS, 0.00702 µM
[15] = RPMI 5 mM glucose + 10% FBS, 0.0211 µM
[16] = RPMI 5 mM glucose + 10% FBS, 0.0632 µM
[17] = RPMI 5 mM glucose + 10% FBS, 0.19 µM
[18] = RPMI 5 mM glucose + 10% FBS, 0.569 µM
[19] = RPMI 5 mM glucose + 10% FBS, 1.71 µM
[20] = RPMI 5 mM glucose + 10% FBS, 5.12 µM
[21] = RPMI 5 mM glucose + 10% FBS, 15.4 µM
[22] = RPMI 5 mM glucose + 10% FBS, 46.1 µM
[23] = RPMI 5 mM glucose + 10% dialyzed FBS, 0.000781 µM
[24] = RPMI 5 mM glucose + 10% dialyzed FBS, 0.00234 µM
[25] = RPMI 5 mM glucose + 10% dialyzed FBS, 0.00702 µM
[26] = RPMI 5 mM glucose + 10% dialyzed FBS, 0.0211 µM
[27] = RPMI 5 mM glucose + 10% dialyzed FBS, 0.0632 µM
[28] = RPMI 5 mM glucose + 10% dialyzed FBS, 0.19 µM
[29] = RPMI 5 mM glucose + 10% dialyzed FBS, 0.569 µM
[30] = RPMI 5 mM glucose + 10% dialyzed FBS, 1.71 µM
[31] = RPMI 5 mM glucose + 10% dialyzed FBS, 5.12 µM
[32] = RPMI 5 mM glucose + 10% dialyzed FBS, 15.4 µM
[33] = RPMI 5 mM glucose + 10% dialyzed FBS, 46.1 µM

Row | SMILES | cell viability [1] | cell viability [2] | cell viability [3] | cell viability [4] | cell viability [5] | cell viability [6] | cell viability [7] | cell viability [8] | cell viability [9] | cell viability [10] | cell viability [11] | cell viability [12] | cell viability [13] | cell viability [14] | cell viability [15] | cell viability [16] | cell viability [17] | cell viability [18] | cell viability [19] | cell viability [20] | cell viability [21] | cell viability [22] | cell viability [23] | cell viability [24] | cell viability [25] | cell viability [26] | cell viability [27] | cell viability [28] | cell viability [29] | cell viability [30] | cell viability [31] | cell viability [32] | cell viability [33]
1 | CCOC1=CC=CC=C1N\2C(=O)C3=C(C=CC=C3)\N=C2C(C)N4CCN(CC4)C(=O)COC5=CC=C(Cl)C=C5 (configuration not stated) | 121% | 120% | 116% | 115% | 107% | 111% | 72.3% | 15.9% | 8.63% | 6.31% | 4.74% | 121% | 126% | 119% | 110% | 117% | 111% | 94.4% | 51.8% | 9.87% | 5.31% | 4.69% |  |  |  |  |  |  |  |  |  |  | 
2 | OC[C@H]1O[C@@H]2[C@@H](OC\3=N\C(=N)\C=C/[N@@]23)[C@@H]1O | 113% | 119% | 107% | 105% | 95.6% | 44.3% | 24.7% | 13.5% | 10.7% | 7.98% | 8.28% | 116% | 118% | 118% | 105% | 93.2% | 47.3% | 22.5% | 12.1% | 8.81% | 7.28% | 6.52% | 109% | 122% | 114% | 117% | 92.4% | 53.2% | 28.6% | 17% | 11.6% | 9.01% | 7.41%
3 | c1ccc(-c2oc3ncnc(NC[C@@H]4CCCO4)c3c2-c2ccccc2)cc1 |  |  |  |  |  |  |  |  |  |  |  |  |  |  |  |  |  |  |  |  |  |  | 109% | 118% | 120% | 113% | 127% | 124% | 128% | 115% | 112% | 103% | 49.8%
4 | CC(C)(O)/C=C\C(=O)[C@](C)(O)[C@H]1[C@H](O)C[C@]2(C)[C@@H]3CC=C4[C@@H](C=C(O)C(=O)C4(C)C)[C@]3(C)C(=O)C[C@@]12C | 94.8% | 106% | 103% | 99.6% | 99.7% | 50.9% | 15.1% | 18.4% | 21.6% | 12.9% | 4.2% | 113% | 105% | 111% | 107% | 97.9% | 47.3% | 12.4% | 15.1% | 17.1% | 6.22% | 2.85% | 93.9% | 98.5% | 93.9% | 104% | 102% | 43.8% | 14.6% | 17.9% | 20.9% | 6.49% | 3.06%
5 | CC(C)Cc1ccc(C(C)C(=O)O)cc1 (configuration not stated) | 86.1% | 86% | 92.1% | 90% | 91.9% | 98.2% | 92.8% | 95.4% | 96.6% | 92.4% | 95.4% | 90.4% | 90.9% | 84.5% | 85% | 87.5% | 89.2% | 81.8% | 90.3% | 82.1% | 77.6% | 81% | 86.7% | 91.6% | 83.9% | 83.2% | 88.3% | 89.8% | 79.1% | 81.7% | 80.9% | 84.5% | 95.6%
6 | CN(C)C(=O)C(CCN1CCC(O)(c2ccc(Cl)cc2)CC1)(c1ccccc1)c1ccccc1 | 122% | 123% | 133% | 122% | 129% | 125% | 127% | 116% | 127% | 107% | 69.2% |  |  |  |  |  |  |  |  |  |  |  |  |  |  |  |  |  |  |  |  |  | 
7 | C#CCN[C@@H]1CCc2ccccc21.CS(=O)(=O)O | 105% | 100% | 91% | 105% | 103% | 95% | 98.2% | 100% | 91.2% | 93.5% | 86.4% | 97.6% | 93.6% | 90.5% | 95.2% | 101% | 103% | 93.7% | 85.6% | 95.9% | 92.9% | 84.2% | 89.5% | 91.9% | 94.9% | 88.8% | 101% | 99.1% | 97% | 85.5% | 83.6% | 83.7% | 83.5%
8 | O.O.CCN1CCN(C(=O)N[C@H](C(=O)N[C@H]2[C@@H]3SC\C(=C(/N3C2=O)C(O)=O)CSC4=NN=N[N]4C)C5=CC=C(O)C=C5)C(=O)C1=O | 92.1% | 102% | 103% | 11.8% | 105% | 103% | 112% | 95.9% | 106% | 108% | 108% | 86.8% | 99.4% | 90.8% | 12.4% | 103% | 100% | 112% | 96.9% | 98.7% | 99.6% | 105% | 84.8% | 88% | 98.1% | 22.6% | 102% | 101% | 93.3% | 97.4% | 97.7% | 102% | 99.5%
9 | OCCn1cc(-c2cnc3nnn(Cc4ccc5ncccc5c4)c3n2)cn1 | 116% | 116% | 116% | 110% | 112% | 110% | 110% | 107% | 103% | 98.9% | 75.4% | 108% | 115% | 114% | 107% | 106% | 122% | 115% | 101% | 100% | 99.6% | 86.5% | 108% | 122% | 114% | 118% | 122% | 115% | 115% | 109% | 112% | 96.9% | 88.6%
